Source: article PMC9421654, “Discovery of Substituted Di(pyridin-2-yl)-1,2,4-thiadiazol-5-amines as Novel Macrofilaricidal Compounds for the Treatment of Human Filarial Infections” (Journal of Medicinal Chemistry, 2022)
In brackets after ≈: the same amount, converted by molar mass. Like-named read-outs stand apart in the source and are kept apart here.

Tests used:
[1] = system: O. gutturosa adult male worms; assay: O. gutturosa adult worm ex vivo assay, motility; format: cell-based, Onchocerca gutturosa; conditions: Onchocerca gutturosa
Procedure: (§1) Activity against O. gutturosa adult male worms was determined using reported procedures.[7] The EC50 values were calculated using Microsoft Office Excel (2010) data analysis software. The tested compound is considered active when a motility reduction of ≥50% is observed by comparison to the untreated controls. O. gutturosa adult male worms were obtained postmortem from freshly slaughtered cattle. The worms were dissected from the nuchal ligament connective tissues of naturally infected cattle in Gambia, West Africa; the material was purchased from the International Trypanotolerance Centre, Banjul, from local butchers for use in this study. The adult worms were transferred individually to each well of a sterile 24-well (2 mL) plate (Thermo Fisher Scientific, UK) and maintained for at least 24 h in culture before use. The medium used was a minimum essential medium (MEM) with Earl’s salts and L-glutamine (Life Technologies Ltd., UK) supplemented with 10% heat inactivated newborn calf serum (Life Technologies Ltd., UK), 200 units/mL penicillin, 200 μg/mL streptomycin, and 0.5 μg/mL amphotericin B (Life Technologies Ltd., UK). Only normally active worms were used for the test, and all assays were conducted at 37 °C and 5% CO2. The positive control drug used was Immiticide (melarsomine dihydrochloride, Merial, USA). Known amounts of compounds were solubilized in 1 mL of DMSO. All stock solutions were allowed to stand at room temperature prior to use. The test items (four worms/drug concentration) were compared to untreated controls (six worms) and the positive control (two worms/drug concentration). Drug efficacy was assessed by the measurement of mean worm motility scores on a scale of 0 (immotile) to 10 (maximum) every 24 h, terminating at 120 h, using an Olympus inverted microscope. The results are reported as a percentage of the maximum score obtainable (100%) by calculating the motility index scores. The test drug is considered active when a motility reduction of ≥50% is observed by comparison to the untreated controls. […] In addition, biochemical evaluation of worm viability was assessed using MTT/formazan colorimetry. The MTT assay was carried out after the last motility reading (120 h). Single intact worms were placed in each well of a 48-well plate (Thermo Fisher Scientific, UK) containing 0.5 mL of 0.5 mg/mL MTT (Sigma, UK) in PBS solution and then incubated for 30 min at 37 °C. The worms were removed, blotted carefully, and individually transferred to separate wells of a 96-well microtiter plate, each containing 200 μL of DMSO to solubilize the formazan. After 1 h, the plate was gently agitated to disperse the color evenly and the absorbance value (optical density, OD) of the resulting formazan solution was determined at 490 nm using an absorbance microplate reader (Biotek ELx800, Thermo Fisher Scientific, UK). The results are expressed as the mean OD per drug concentration. Inhibition of formazan formation is correlated with worm damage or death.
Data S1. Onchocerca gutturosa adult male worms EC 50 Curves
Plotted using Graph Pad Prism 7.03, least square original fit, sigmoidal, 4PL
The measurement of mean worm motility every 24 h, terminating at 120 h, serial 1 in 4 drug dilutions to find
activity endpoint and produce EC50 values (geomean, n=2) for motility reduction. (4 worms per drug […]

[2] = Liver S9 metabolic stability assay, human; format: in vitro ADME; conditions: 3 μM, 60 min
Procedure: (§2) Liver S9 Metabolic Stability Assay: Incubations were performed at 37 °C in a Dubnoff Shaking water bath using 2 mL 96-well incubation plates. Rat and human S9 protein concentrations were 0.75 mg/ml and 1.2 mg/ml, respectively. The final concentrations of NADPH, UDPGA, and GSH were 1, 0.5, and 2.5 mM, and the final concentration of PAPS was 0.05 mg/ml. Substrate concentrations were 3µM, incubation time was 60 minutes, and all tests were done in triplicate. The incubation was conducted in 200 mM Tris buffer containing 2 mM magnesium chloride, pH=7.4 and the total incubation volume was 0.5 ml. Samples were analysed via LC-MS/MS and reported as percentage remaining after incubation for 60 minutes. […]

[3] = system: O. gutturosa adult male worms; assay: O. gutturosa adult worm ex vivo assay, MTT/formazan viability; format: cell-based, Onchocerca gutturosa; conditions: supplement, SD in brackets in the PDF table, read-out: O. gutturosa EC50 (uM) MTT viability inhibition
Procedure: as §1

[4] = Kinetic solubility measurement; format: physicochemical
Procedure: Kinetic Solubility Measurement: The standard kinetic solubility assay runs on […] concentration range using 10 mM DMSO stock solutions for plating. Single point calibration assay runs in duplicates. Concentration of standards: […] DMSO solutions prepared by diluting 10 mM stock, solution with DMSO. Concentration of samples: 200 µM, 4 µl 10 mM DMSO stock solution diluted with the appropriate buffer to […]. DMSO content:
2%. Buffers: pH=7.4 (0.1M Potassium phosphate buffer, diluted from Sigma 1M P3619-1GA to 0.1 M with MilliQ water), pH=2.2 (0.1M- NaCl pH adjusted with 0.1N HCL), pH=6.8 (0.1M - KH2PO4/K2HPO4), pH=5 (4 .04g of NaOH (Pellets), 8.65g of Glacial Acetic Acid, 11.874g of NaCl. In in 1 liter water. Adjusted to pH to 5 with either 1N NaOH or 1N HCl). The controls were plated from the standard 10 mM DMSO stock and run on the standard concentration (200µM) range of the assay. Incubation time: 24 hours shaking at […] in Millipore Multiscreen HTS filter plate for Aqueous Solubility Assay (MSSLBPC50), on room temperature.
After incubation time filtration with positive pressure manifold was performed. […]

[5] = Liver S9 metabolic stability assay, rat; format: in vitro ADME; conditions: 3 μM, 60 min
Procedure: as §2

[6] = target: T1, hERG potassium channels (KCNH2, expressed in HEK293 cells) (Homo sapiens, UniProt Q12809); assay: hERG inhibition; format: cell-based
T1 construct: expressed in transfected cells
T1 sequence (Q12809 whole entry): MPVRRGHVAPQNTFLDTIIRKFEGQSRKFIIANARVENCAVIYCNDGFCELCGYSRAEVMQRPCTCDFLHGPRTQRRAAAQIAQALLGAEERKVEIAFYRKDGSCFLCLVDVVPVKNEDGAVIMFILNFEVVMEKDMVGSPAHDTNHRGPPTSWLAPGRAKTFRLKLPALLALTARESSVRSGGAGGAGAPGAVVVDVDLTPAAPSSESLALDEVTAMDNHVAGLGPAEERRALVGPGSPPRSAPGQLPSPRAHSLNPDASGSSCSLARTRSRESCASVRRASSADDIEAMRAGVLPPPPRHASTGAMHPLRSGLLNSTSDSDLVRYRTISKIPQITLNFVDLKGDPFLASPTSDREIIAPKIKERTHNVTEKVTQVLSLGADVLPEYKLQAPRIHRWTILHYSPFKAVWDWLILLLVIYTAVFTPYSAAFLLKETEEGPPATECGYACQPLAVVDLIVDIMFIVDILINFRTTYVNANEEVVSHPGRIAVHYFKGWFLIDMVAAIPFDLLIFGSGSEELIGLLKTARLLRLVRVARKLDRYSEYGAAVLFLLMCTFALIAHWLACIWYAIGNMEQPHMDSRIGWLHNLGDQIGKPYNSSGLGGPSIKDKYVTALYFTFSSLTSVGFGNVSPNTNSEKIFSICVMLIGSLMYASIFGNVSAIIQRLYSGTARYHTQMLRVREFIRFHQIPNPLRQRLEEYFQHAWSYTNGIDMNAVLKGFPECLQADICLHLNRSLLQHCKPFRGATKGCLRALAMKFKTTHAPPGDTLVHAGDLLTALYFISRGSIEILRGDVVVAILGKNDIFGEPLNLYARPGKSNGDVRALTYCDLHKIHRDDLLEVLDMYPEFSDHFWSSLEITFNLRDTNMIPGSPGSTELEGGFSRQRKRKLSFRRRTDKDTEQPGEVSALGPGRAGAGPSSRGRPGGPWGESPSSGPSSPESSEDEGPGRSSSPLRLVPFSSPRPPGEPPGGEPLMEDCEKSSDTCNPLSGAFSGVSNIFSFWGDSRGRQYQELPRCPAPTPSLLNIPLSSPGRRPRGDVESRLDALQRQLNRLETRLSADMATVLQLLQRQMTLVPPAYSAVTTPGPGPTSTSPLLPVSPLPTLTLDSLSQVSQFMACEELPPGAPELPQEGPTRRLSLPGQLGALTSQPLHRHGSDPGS

[7] = LogD measurement (octanol-water); format: physicochemical
Procedure: LogD Measurement: Measurement of octanol-water distribution coefficient of samples using a […]
stock solutions for plating. Aqueous Phase: 100mM Buffer, pH=7.4 (0.1M Potassium phosphate buffer, diluted from Sigma 1M P3619-1GA to 0.1 M with MilliQ water), pH=2.2 (0.1M- NaCl pH adjusted with 0.1N HCL), pH=6.8 (0.1M - KH2PO4/K2HPO4), pH=5 (4 .04g of NaOH (Pellets), 8.65g of Glacial Acetic Acid, 11.874g of NaCl. In in 1 liter water. Adjusted to pH to 5 with either 1N NaOH or 1N HCl); Organic Phase: 1-Octanol (O021). Sample Concentration:
1000uM, […] 10 mM DMSO stock solution diluted in […] of organic Phase and […] of aqueous Phase. DMSO content: 10%. The controls were plated from the standard 10 mM DMSO stock and run on the standard concentration ([…]) range of the assay. Incubation time:
Sonication for 30 minutes followed by 24 hours shaking at 750 rpm in 96 deep well plate (VWR

THLE-2 cells = assay: THLE-2 cytotoxicity assay (ATP); conditions: Homo sapiens, THLE-2, read-out: THLE IC50
Procedure: In vitro cytotoxicity of select compounds was tested in a “normal” proliferating transformed human liver epithelial (THLE-2) cell line.[35] Compounds were incubated in THLE-2 cells for 24 and 72 h, and adenosine triphosphate (ATP) levels were used as an indicator of cell viability.
THLE-2 Cytotoxicity Assay: THLE-2 cells (ATCC, catalog #CRL-2706) were plated in LHC-8 Media (Invitrogen, catalog #12679015) supplemented with fetal bovine serum (GE, catalog #SH30088.03), 70 ng/mL phosphoethanolamine (Sigma, catalog #P0503), 5 ng/mL EGF (Sigma, catalog #E9644), 1X penicillin/streptomycin (Gibco, catalog #15140148), and 1X glutamine (Invitrogen, catalog #25030024) in 384-well clear-bottom, black walled plates at a density of 3750 cells/well (15μL/well). After plating, cells were incubated overnight at 37°C in an incubator with 5% CO2 and 90% humidity. Compounds were first serially diluted in dimethyl sulfoxide then diluted in LHC-8 media growth media to 2X concentration. Cells were dosed with 15μL of each dose for final concentrations between 0.01 – 300 μM. Cells were incubated with compounds for 24 or 72 hours. Cytotoxicity was determined with Cell Titer Glo Luminescent ATP Assay (Promega, catalog #G7573) according to the manufacturer’s instructions. Tamoxifen (Sigma, catalog #BC9353476) was used as a positive control. levels at each dose were normalized to that of cells dosed with dimethyl sulfoxide vehicle alone and IC50 values were calculated from non-linear regression fits of dose-response curves plotted

P-gp (MDR1) = target: T2, P-gp (MDR1) (Homo sapiens, UniProt P08183); assay: MDCK/MDR1 permeability and efflux; format: in vitro ADME; conditions: dog
T2 construct: expressed in transfected cells; host or cells: MDCK (Madin Darby canine kidney) cells
T2 sequence (P08183 whole entry): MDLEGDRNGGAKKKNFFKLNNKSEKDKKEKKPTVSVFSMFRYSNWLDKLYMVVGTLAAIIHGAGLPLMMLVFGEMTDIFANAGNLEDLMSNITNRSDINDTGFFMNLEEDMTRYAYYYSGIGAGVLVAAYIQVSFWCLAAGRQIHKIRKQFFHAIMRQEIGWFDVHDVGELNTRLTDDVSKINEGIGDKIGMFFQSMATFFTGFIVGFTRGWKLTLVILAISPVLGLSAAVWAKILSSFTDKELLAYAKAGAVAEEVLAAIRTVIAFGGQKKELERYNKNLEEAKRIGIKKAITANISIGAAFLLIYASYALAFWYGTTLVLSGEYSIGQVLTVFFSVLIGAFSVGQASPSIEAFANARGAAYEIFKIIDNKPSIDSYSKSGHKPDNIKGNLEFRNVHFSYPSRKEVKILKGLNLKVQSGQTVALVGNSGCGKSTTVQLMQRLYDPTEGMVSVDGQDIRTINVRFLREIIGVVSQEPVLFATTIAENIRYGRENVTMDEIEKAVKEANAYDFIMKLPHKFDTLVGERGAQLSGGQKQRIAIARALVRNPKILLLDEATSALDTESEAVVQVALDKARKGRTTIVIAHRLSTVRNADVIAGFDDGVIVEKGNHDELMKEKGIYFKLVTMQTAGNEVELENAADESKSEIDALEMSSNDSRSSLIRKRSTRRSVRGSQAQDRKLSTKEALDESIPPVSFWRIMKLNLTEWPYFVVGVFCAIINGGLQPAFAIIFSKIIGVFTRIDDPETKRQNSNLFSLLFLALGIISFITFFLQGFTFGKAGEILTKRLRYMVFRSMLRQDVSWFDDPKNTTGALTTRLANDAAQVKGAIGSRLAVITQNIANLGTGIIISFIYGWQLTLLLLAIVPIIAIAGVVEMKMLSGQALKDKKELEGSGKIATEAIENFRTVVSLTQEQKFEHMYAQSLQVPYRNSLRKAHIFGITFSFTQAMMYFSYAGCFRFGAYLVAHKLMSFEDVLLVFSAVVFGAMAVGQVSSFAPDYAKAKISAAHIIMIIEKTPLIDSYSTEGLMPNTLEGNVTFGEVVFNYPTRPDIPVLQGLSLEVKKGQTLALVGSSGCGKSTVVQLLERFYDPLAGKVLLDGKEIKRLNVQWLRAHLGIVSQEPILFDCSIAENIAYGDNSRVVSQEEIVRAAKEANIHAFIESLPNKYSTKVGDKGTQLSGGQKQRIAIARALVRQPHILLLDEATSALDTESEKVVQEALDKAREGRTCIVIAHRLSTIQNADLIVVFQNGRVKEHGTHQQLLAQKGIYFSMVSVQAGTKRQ
From the text: Our approach was to target compounds with efflux ratio (ER) >2.5 in the MDCK cell line transfected with MDR1 (multidrug resistance-1 transfected Madin Darby canine kidney cell line). […] Our goal was to impart structural elements designed to impart Pgp recognition.

[8] = read-out: O. gutturosa EC50 μM (SD), ex vivo adult worm motility reduction, SD in brackets
[9] = read-out: O. gutturosa EC50 (uM) motility inhibition, supplement, SD in brackets in the PDF table
[10] = supplement, read-out: measured logD

| Structure (SMILES) | EC50 [1, 8] [µM] | EC50 [1, 9] [µM] | EC50 ([1]; read-out: O. gutturosa EC50, adult worm motility, bound stated) [µM] | Human S9 metabolic stability [2] [% remaining] | EC50 ([3]; Onchocerca gutturosa) [µM] | solubility kinetic at 24 h ([4]; 10 mM DMSO stock solutions) [µM] | Rat S9 metabolic stability [5] [% remaining] | IC50 ([6]; supplement) [nM] | logD at 24 h [7, 10] | logD at 24 h ([7]; pH 7.4, read-out: logD) | EC50 [3] [µM] | IC50 [6] [nM] | IC50 (THLE-2 cells) [nM] | solubility kinetic at 24 h ([4]; supplement) [µM] | Papp A→B (P-gp (MDR1)) [×10⁻⁶ cm/s] |
| --- | --- | --- | --- | --- | --- | --- | --- | --- | --- | --- | --- | --- | --- | --- | --- |
| Cc1cccnc1Nc1nc(-c2ccc(OC3CCOCC3)cn2)ns1 [Compound 3] | 0.03 | 0.027 | < 0.1 | 84 | 0.24 | 7.3 (≈ 2.7 µg/mL) | 82 | 19000 | 2.2 |  |  |  |  |  |  |
| Cc1cccnc1Nc1nc(-c2cc(C#N)c(OC(C)C)cn2)ns1 [Compound 15] | 1.37 |  |  | 100 | 0.71 | 0.3 (≈ 0.106 µg/mL) | 84 | > 30000 | 2.3 | 2.3 |  |  |  |  |  |
| Cc1cccnc1Nc1nc(-c2ccc(C(=O)N(C)C)cn2)ns1 [Compound 18, N,N-Dimethyl-6-(5-((3-methylpyridin-2-yl)amino)-1,2,4-thiadiazol-3-yl)nicotinamide] | 0.06 | 0.062 |  | 97 | 0.09 | 73.2 (≈ 24.9 µg/mL) | 94 | > 30000 | 1.7 | 1.7 | 0.087 |  |  |  |  |
| Cc1cccnc1Nc1nc(-c2ccc(OC3CCN(C4CC4)CC3(F)F)cn2)ns1 (stereo not drawn) [Compound 20, 3-(5-((1-Cyclopropyl-3,3-difluoropiperidin-4-yl)oxy)pyridin-2-yl)-N-(3-methylpyridin-2-yl)-1,2,4-thiadiazol-5-amine] | 0.24 | 0.236 |  | 52 | 0.3 |  | 32 |  | 2.8 | 2.8 |  | > 30000 |  |  |  |
| COc1cccnc1Nc1nc(-c2ccc(OC(C)C)cn2)ns1 [Compound 28, 3-(5-Isopropoxypyridin-2-yl)-N-(3-methoxypyridin-2-yl)-1,2,4-thiadiazol-5-amine] | 0.08 | 0.076 |  | 100 | 0.62 | 7.25 (≈ 2.49 µg/mL) | 100 |  | 1.7 | 1.7 |  |  | 7700 |  |  |
| CC(=O)Nc1cccnc1Nc1nc(-c2ccc(OC(C)C)cn2)ns1 [Compound 46] | 1.27 |  |  |  | 1.37 | 29.4 (≈ 10.9 µg/mL) |  | > 30000 | 2.4 | 2.4 |  |  |  | 29.5 (≈ 10.9 µg/mL) |  |
| CC(=O)N(C)c1cc(C(F)(F)F)cnc1Nc1nc(-c2cc(OC(C)C)ccn2)ns1 [Compound 55, N-(2-((3-(4-Isopropoxypyridin-2-yl)-1,2,4-thiadiazol-5-yl)amino)-5-(trifluoromethyl)pyridin-3-yl)-N-methylacetamide] | 0.01 | 0.013 |  |  | 0.04 |  |  |  | 3 | 3 |  |  |  |  | 1.7 |
